Assay results as given in US5628328A, “Method for measuring muscle mass” (priority 1995, dated 1997).

Legend:
[1] = in vivo
Description: The diversity of models between cattle, dogs and humans and sheep and pigs reflects differences in known physiology. In each species the tracer is injected into compartment 1 which, based on size (volume and mass), is similar to plasma and extracellular water space. Compartment 1 was the sampling compartment and the compartment from which the steady state calculations were initiated. All models for each species can be resolved by sampling only plasma, except in sheep--the model in FIG. 4 required the sampling of plasma and urine. However, the sheep model can be resolved from plasma kinetics of 3-methylhistidine if the rate of exit from compartment 1 is fixed. From the steady state calculations the de novo production of 3-methylhistidine was obtained into compartment 3 for humans, cattle and dogs and into compartment 2 for sheep and pigs. The de novo production of 3-methylhistidine could be placed as an entry into compartment 2 and an identical rate calculated. The compartment identity of compartment 2 and 3 is intracellular pools of 3-methylhistidine. The metabolic form of 3-methylhistidine in these compartments may not be identical nor is the identity of compartment 2 or 3 for one species the same identity for another species (i.e., cattle vs. sheep). The models also depict differences in the route by which 3-methylhistidine exits the system. […]

[2] = design: species or system human; details: in vivo
Description: Normal volunteers with no evidence or history of diabetes mellitus or of cardiac, liver, renal or pulmonary diseases were studied. The subjects consisted of 3 males and 1 female, ranging in age from 31 to 37 years, in body weight from 47 to 92 kg, and in body mass index (BMI) from 19.2 to 25.5. The purpose and possible risks of the study were explained to all subjects, and their voluntary written consent was obtained. The study protocol was approved by the Committee for the Protection of Human Subjects of the Institutional Review Board at Vanderbilt University School of Medicine. All studies were performed at the Clinical Research Center (CRC). Subjects were placed on balanced weight-maintenance diets for at least one week before the start of the study. Meat was excluded from the subjects' diets for three days before the study and during the study.
All studies were performed after a 10-12 hour overnight fast. On the morning of the experiment (6.30 to 7.00 hours), an 18-gauge Angiocatheter™ (Benton Dickinson, Sandy, Utah) was placed in a superficial hand vein of the nondominant arm for blood sampling. The hand was heated to 55° C. to ensure complete arterialization (Abumrad, N.N. et al., "Use of a heated superficial hand vein as an alternative site for the measurement of amino acid concentrations and for the study of glucose and alanine kinetics in man," Metabolism (1981) 30:936-940). In addition, a 16-gauge angiocatheter was inserted into the contralateral forearm vein for the infusion of L-3-[methyl-^2 H3 ]-histidine (MSD Isotopes, Montreal, Canada). Finally, another catheter was threaded retrograde into the brachial vein of the dominant arm and used for sampling of the forearm tissue.
Each study was four days in duration. Starting at t=0 (8.00 hours), subjects were administered a bolus infusion of L-3-[methyl^2 H3 ]-histidine (D3 -3-methylhistidine) at 0.13 μmol/kg into the forearm vein of the dominant arm. The infusate was passed through a Millex-GS sterilizing filter (0.22 μm; Millipore Products Divisions, Bedford, Mass.) before the infusion. Blood samples were obtained from the superficial hand vein and from the deep forearm vein at 0, 1, 2, 5, 10, 15, 30, 45, 90, 150, 210, 270, 330, and 720 min. postinjection. During this time, the subjects were required to stay at the Clinical Research Center, although they were allowed to ambulate freely within their rooms. Free access to food and drink was allowed after the 330-min sample. After 720 min, the catheters were removed and the patients were allowed to go home. For the following three days, the subjects returned to the CRC each morning before eating for further blood sampling by percutaneous venous puncture at 1,440, 2,880, and 4,320 min postinjection. Urine was collected over 24 hour periods the day before and for three days after tracer infusion.
Blood was collected in heparinized syringes, transferred to tubes containing Na2 EDTA (15 mg/tube), and centrifuged. The plasma obtained was immediately placed on ice. An aliquot of the plasma was processed for determination of 3-methylhistidine concentration as well as the L-3-[methyl-^2 H3 ]-histidine:3-methylhistidine isotope enrichment. The remainder of the plasma was frozen at -70° C. The urine obtained was processed for the determination of creatinine both as a measure of the completeness of the collection (Pencharz, P. B. et al., "The effect of an energy-restricted diet on the protein metabolism of obese adolescents: nitrogen-balance and whole-body nitrogen turnover," Clin. Sci. (1980) 59:13-18), and for the estimation of lean body mass (Blackburn, G. L. et al., "Nutritional and metabolic assessment of hospitalized patients," J. Parenter. Enteral. Nutr. (1977) 1:11-22). […]

[3] = in vivo; remark: listed apart in the source
[4] = Safety and excretion of administered D3-3-methylhistidine; details: small quantities administered
[5] = adult human; cited from earlier work
[6] = rat; cited from earlier work

Compound	Exponential decay curve of tracer [1]	Decay of D3-3-methylhistidine:3-methylhistidine ratio in plasma [2]	Urinary excretion [3]	Toxicity [4]	Share of daily 3-methylhistidine excreted [5]	Form excreted in urine [6]
[2H]C([2H])([2H])n1cnc(C[C@H](N)C(=O)O)c1 [D3-3-methylhistidine, 3-[^2 H3-methyl]-methylhistidine]	rapid decay over the first 2-3 hours, followed by a slower decay through 12 hours, and a steady state decay over the remainder of the study	rapid decrease in the D3- 3-methylhistidine:3-methylhistidine ratio during the first 5 hours followed by a slow linear (semilog plot) decay over the three days of blood sampling	quantitatively excreted in urine	non-toxic		
N-acetyl-3-methylhistidine					less than 5%	major form excreted in the rat
